Test results published in PubChem BioAssay AID248 (DTP/NCI, 2004).
Values joined by “and” are separate entries in the source; they are usually repeats but may differ in a detail not shown here. Identical values can stand only once. Inconclusive results and toxic doses are left out. Cut-off read from the data, not from the text of the source: active = T/C of 150% or more; inactive = T/C below 125%.

Test system: L1210 leukemia ip in BDF1 mice, survival T/C
Experiment: NCI In Vivo Anticancer Drug Screen. Data for tumor model L1210 Leukemia (intraperitoneal) in B6D2F1 (BDF1) mice
Conditions: endpoint: mean survival time, higher = longer survival
In short: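 Ratio derived from survival: compound-dosed mice over vehicle-dosed mice, all bearing a transplantable tumor.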

[1] = dose: 100.0 mg/kg/injection, schedule: Q01DX009 (ip), vehicle: saline with Tween-80
[2] = dose: 200.0 mg/kg/injection, schedule: Q01DX009 (ip), vehicle: saline with Tween-80
[3] = dose: 400.0 mg/kg/injection, schedule: Q01DX009 (ip), vehicle: saline with Tween-80
[4] = dose: 25.0 mg/kg/injection, schedule: Q01DX009 (ip), vehicle: Klucel (hydroxypropylcellulose) (HPC)
[5] = dose: 50.0 mg/kg/injection, schedule: Q01DX009 (ip), vehicle: Klucel (hydroxypropylcellulose) (HPC)
[6] = dose: 100.0 mg/kg/injection, schedule: Q01DX009 (ip), vehicle: Klucel (hydroxypropylcellulose) (HPC)
[7] = dose: 100.0 mg/kg/injection, schedule: Q04DX003 (ip), vehicle: saline with Tween-80
[8] = dose: 200.0 mg/kg/injection, schedule: Q04DX003 (ip), vehicle: saline with Tween-80
[9] = dose: 400.0 mg/kg/injection, schedule: Q04DX003 (ip), vehicle: saline with Tween-80
[10] = dose: 100.0 mg/kg/injection, schedule: Q01DX001 (ip), vehicle: saline
[11] = dose: 200.0 mg/kg/injection, schedule: Q01DX001 (ip), vehicle: saline
[12] = dose: 100.0 mg/kg/injection, schedule: Q04DX003 (ip), vehicle: Klucel (hydroxypropylcellulose) (HPC)
[13] = dose: 200.0 mg/kg/injection, schedule: Q01DX009 (ip), vehicle: Klucel (hydroxypropylcellulose) (HPC)

Measured: T/C

CC1c2ccccc2N(S(=O)(=O)c2ccccc2)C1C (configuration not stated)
inactive: dose: 100.0 mg/kg/injection, schedule: Q01DX009 (ip), vehicle: gum acacia 108 % of control | dose: 100.0 mg/kg/injection, schedule: Q04DX003 (ip), vehicle: gum acacia 96 % of control | dose: 200.0 mg/kg/injection, schedule: Q01DX009 (ip), vehicle: gum acacia 104 % of control | dose: 200.0 mg/kg/injection, schedule: Q04DX003 (ip), vehicle: gum acacia 102 % of control | dose: 400.0 mg/kg/injection, schedule: Q01DX009 (ip), vehicle: gum acacia 93 % of control | dose: 400.0 mg/kg/injection, schedule: Q04DX003 (ip), vehicle: gum acacia 96 % of control

COCCNC(=O)Nc1cccc2c1CCCC2
inactive: [1] 97 % of control | [2] 99 % of control | [3] 103 % of control

COc1cc(OC(=O)Nc2ccc([N+](=O)[O-])cc2OC)ccc1C=O
inactive: [4] 92 % of control | [5] 92 % of control | [6] 105 % of control and 88 % of control

CCCc1cc(C)cc2nc(-c3ccccc3)oc12
inactive: [7] 101 % of control | [8] 95 % of control | [9] 89 % of control

COC(=O)C1(C)COP(=O)(N2CC2)OC1 (configuration not stated)
inactive: [10] 101 % of control | [11] 106 % of control | dose: 400.0 mg/kg/injection, schedule: Q01DX001 (ip), vehicle: saline 95 % of control

CCOC(=O)Nc1cc(Nc2ccc(Cl)cc2)c2nc(-c3ccc(Cl)cc3)c(-c3ccc(Cl)cc3)nc2n1
inactive: dose: 25.0 mg/kg/injection, schedule: Q04DX003 (ip), vehicle: Klucel (hydroxypropylcellulose) (HPC) 104 % of control | dose: 50.0 mg/kg/injection, schedule: Q04DX003 (ip), vehicle: Klucel (hydroxypropylcellulose) (HPC) 101 % of control | [12] 98 % of control

N#C/C(=C1C=C(Br)/C(=N\O)C=C\1Cl)c1cccc2ccccc12
inactive: [1] 98 % of control | [7] 95 % of control | [2] 93 % of control | [8] 90 % of control | [3] 94 % of control | [9] 104 % of control

C/C=C(\C)C(=O)Nc1ccc(Cl)c(Cl)c1
inactive: dose: 222.0 mg/kg/injection, schedule: Q01DX Z (ip), vehicle: methylcellulose (MC) 93 % of control | dose: 333.0 mg/kg/injection, schedule: Q01DX Z (ip), vehicle: methylcellulose (MC) 90 % of control | dose: 500.0 mg/kg/injection, schedule: Q01DX Z (ip), vehicle: methylcellulose (MC) 98 % of control

Cc1ccc(C(=O)C2OC2c2ccccc2)cc1 (configuration not stated)
inactive: dose: 100.0 mg/kg/injection, schedule: Q01DX001 (ip), vehicle: Klucel (hydroxypropylcellulose) (HPC) 97 % of control | dose: 200.0 mg/kg/injection, schedule: Q01DX001 (ip), vehicle: Klucel (hydroxypropylcellulose) (HPC) 95 % of control | dose: 400.0 mg/kg/injection, schedule: Q01DX001 (ip), vehicle: Klucel (hydroxypropylcellulose) (HPC) 89 % of control

O=C(O)/C(S)=C\c1ccc(Cl)cc1
inactive: [10] 97 % of control | [11] 94 % of control

O=C(N1CCC(CCCc2ccccc2)CC1)C(Cl)(Cl)Cl
inactive: dose: 100.0 mg/kg/injection, schedule: Q04DX002 (ip), vehicle: Klucel (hydroxypropylcellulose) (HPC) 95 % of control | dose: 200.0 mg/kg/injection, schedule: Q04DX002 (ip), vehicle: Klucel (hydroxypropylcellulose) (HPC) 95 % of control | dose: 400.0 mg/kg/injection, schedule: Q04DX002 (ip), vehicle: Klucel (hydroxypropylcellulose) (HPC) 100 % of control

COc1cc2c(cc1OC)C(CCc1ccc(Cl)cc1)N(C)CC2 (configuration not stated)
inactive: dose: 12.5 mg/kg/injection, schedule: Q01DX009 (ip), vehicle: Klucel (hydroxypropylcellulose) (HPC) 113 % of control | [4] 108 % of control | [5] 104 % of control | [6] 116 % of control | [13] 113 % of control

O=S(=O)(C1CCCCC1)C1CCCC1
inactive: [6] 97 % of control | [12] 102 % of control | [13] 100 % of control | dose: 200.0 mg/kg/injection, schedule: Q04DX003 (ip), vehicle: Klucel (hydroxypropylcellulose) (HPC) 105 % of control | dose: 400.0 mg/kg/injection, schedule: Q01DX009 (ip), vehicle: Klucel (hydroxypropylcellulose) (HPC) 107 % of control | dose: 400.0 mg/kg/injection, schedule: Q04DX003 (ip), vehicle: Klucel (hydroxypropylcellulose) (HPC) 107 % of control

S=C(Nc1ccccc1)Nc1ncn[nH]1
inactive: dose: 75.0 mg/kg/injection, schedule: Q01DX001 (ip), vehicle: carboxymethylcellulose (CMC) 95 % of control | dose: 150.0 mg/kg/injection, schedule: Q01DX001 (ip), vehicle: carboxymethylcellulose (CMC) 98 % of control | dose: 300.0 mg/kg/injection, schedule: Q01DX001 (ip), vehicle: carboxymethylcellulose (CMC) 88 % of control
